Laboratory results as given in article PMC6441926 (Molecular Oncology, 2019).
Each block holds one compound with its values, some of them ahead of it. Residues, ends and D or L forms follow the SMILES beside them. *: point of attachment. Cbz = O=C(OCc1ccccc1)*

What was measured:
[1] = test system: Mcl-1; assay: Western blot of Mcl-1 protein level in A549 cells; format: cell-based; conditions: 8 h
Experimental: After treated with different concentrations of compounds, total proteins were extracted using RIPA lysing buffer. […] The membranes were blocked with 5% non‐fat milk at room temperature for 1 h, and then incubated with primary antibodies overnight at 4 °C. After washing with Tris buffered saline with Tween 20 (TBST), membranes were incubated with secondary antibodies at room temperature for another 1 h. The protein bands were visualized by adding ECL system WBKLS0050 (EMD Millipore, Billerica, MA, USA) and analyzed using Bio‐Rad Laboratories Quantity One software (Bio‐Rad).

[2] = test system: H1975 cells; assay: CCK-8 cell viability assay, H1975; format: cell-based; conditions: Homo sapiens, NCI-H1975; CCK-8, 48 h, EGFR L858R/T790M
Experimental: (§1) Cell proliferation was measured by Cell Counting Kit‐8 (CCK‐8) assay (Bestbio, Shanghai, China). Cells were cultured in 96‐well plates at a concentration of 7 × 10^3/well for 24 h. If necessary, cells were pretreated with 25 or 50 μM of Z‐VAD‐FMK for 4 h. Then cells were treated with indicated concentrations of compounds for 48 h. Supernatant was totally removed and 100 μL of CCK‐8 solution was added to each well and cultured for another 2 h at 37 °C. Cell viability was quantified using a SpectraMax M2e (Molecular Devices, San Jose, CA, USA) at 450 nm. Cell viability was calculated for each well as (absorbance 450 nm of treated cells/absorbance 450 nm of control cells) × 100%. Assays were performed on three independent experiments.

[3] = test system: A549 cells; assay: CCK-8 cell viability assay, A549; format: cell-based; conditions: for IC50: Homo sapiens, A549, CCK-8, 48 h, EGFR wild-type
Experimental: as §1, with “Then cells were treated with indicated concentrations of compounds for 48 h.” left out

[4] = test system: primary lung cancer cells; assay: Collagen gel droplet embedded 3D-culture (CD-DST) of primary lung cancer cells; format: cell-based; conditions: Homo sapiens; 15 primary lung cancer samples, 4 μM for 24 h, then cultured another 5 days, neutral red; read-out: viable cell percentage
Experimental: Collagen gel droplet embedded 3D‐culture system (CD‐DST) system was performed using a Tumor chemo‐sensitivity assay kit provided by Guangzhou Darui Biotechnology Co., Ltd (Guangzhou, China) (Hou et al., 2017). Briefly, 0.1–0.5 g freshly dissected human lung cancer tissues were digested by trypsin and incubated in collagen gel‐coated flasks. Then, cells were collected and incubated in a collagen gel droplet at the density of 4000 cells per droplet (the volume of each droplet was 30 μL). […] Cells were visualized by neutral red stain and observed using cell analysis system DR6690 (Guangzhou Darui Biotechnology Co., Ltd). Survival rates were calculated as (absorbance 540 nm of treatment group/absorbance 540 nm of control group) × 100%.
Table S2. Cell viability of 15 primary lung cancer cells after treatment with 4 μM of compounds for 24 h, and cultured for another 120 h before neutral red stain and fixation. Cell viability was calculated observed using specific cell analysis system DR6690 (Guangzhou Darui Biotechnology Co., Ltd, Guangzhou, China). Survival rates were calculated as (O.D. 540nm treatment group/O.D. 540nm control group) × 100%.

[5] = Pharmacokinetics in SD rat; format: in vivo; conditions: po, intragastric 30 mg/kg
Experimental: Table S3. PK parameters of Ibr-7 in SD rat (i.g 30 mg/kg). Ibr-7 was orally administrated at the dose of 30 mg/kg. At each time point, 0.1 ml of rat blood was gained through retro-orbital plexus and then centrifuged at 5,000 rpm, 4 ℃ for 10 min. 10 μl of sample was mixed with 100 μl of internal reference (Buspirone 50 ng/ml, terfenadine 50 ng/ml), and vortexed for 60 s. After centrifuging at 12,000 rpm for 3 min, the supernatant was collected and transferred to an equal volume of distilled water into the 96-well plate. The final injection volume was 10 μl. Samples were analyzed by LC-MS/MS (API 4000QTRAP) and data was processed by Analyst v 1.5.1.

[6] = test system: RPS6; assay: SILAC phosphoproteomics in A549 cells, RPS6; format: cell-based; conditions: 8 μM, 8 h, treated versus untreated
Experimental: (§2) A549 cells were cultured in F12 and supplemented with either (U‐12C6)‐L‐lysine (light) or (U‐13C6)‐L‐lysine (heavy) for at least eight generations. The heavy labeling efficiency was measured by mass spectrometer analysis. Cells were continuously maintained in SILAC medium until they reached the desired confluence. Cells were treated with 8 μM of Ibr‐7 for 8 h, and then harvested by trypsinization. The enriched fractions were analyzed by mass spectrometry.

[7] = test system: LARP1; assay: SILAC phosphoproteomics in A549 cells, LARP1; format: cell-based; conditions: 8 μM, 8 h, treated versus untreated
Experimental: as §2

[8] = test system: mTOR; assay: SILAC phosphoproteomics in A549 cells, mTOR; format: cell-based; conditions: 8 μM, 8 h, treated versus untreated
Experimental: as §2

[9] = test system: EIF2S2; assay: SILAC phosphoproteomics in A549 cells, EIF2S2; format: cell-based; conditions: 8 μM, 8 h, treated versus untreated
Experimental: as §2

[10] = test system: H460 cells; assay: CCK-8 cell viability assay, H460; format: cell-based; conditions: Homo sapiens, NCI-H460; CCK-8, 48 h, EGFR wild-type
Experimental: as §1

[11] = biological target: p70S6K (Homo sapiens, UniProt P23443); assay: Kinase inhibition ELISA, p70S6K; format: biochemical; conditions: ELISA kinase assay
Description: (§3) ELISA was used to determine the inhibitory effect of Ibr‐7 on five kinases after molecular modification. […] Since p‐S6 is the downstream functional factor that controls the translational process, we attempted to determine the role of p‐S6 in the Ibr‐7 antitumor effect.

[12] = biological target: PI3Ka (Homo sapiens, UniProt P42336); assay: Kinase inhibition ELISA, PI3Ka; format: biochemical; conditions: ELISA kinase assay
Description: as §3

[13] = test system: RPS6KA1; assay: SILAC phosphoproteomics in A549 cells, RPS6KA1; format: cell-based; conditions: 8 μM, 8 h, treated versus untreated
Experimental: as §2

[14] = biological target: T1, EGFR (Homo sapiens, UniProt P00533); assay: Kinase inhibition ELISA, EGFR; format: biochemical; conditions: ELISA kinase assay
Description: as §3

[15] = test system: PC-9 cells; assay: CCK-8 cell viability assay, PC-9; format: cell-based; conditions: Homo sapiens, CCK-8, 48 h, EGFR exon 19 deletion
Experimental: as §1

[16] = biological target: mTOR (Homo sapiens, UniProt P42345); assay: Kinase inhibition ELISA, mTOR; format: biochemical; conditions: ELISA kinase assay
Description: as §3

[17] = biological target: AKT1 (Homo sapiens, UniProt P31749); assay: Kinase inhibition ELISA, AKT1; format: biochemical; conditions: ELISA kinase assay
Description: as §3

[18] = test system: A549 xenograft; assay: A549 tumor xenograft assay; format: in vivo; conditions: A549 xenograft nude mice, 60 mg·kg^−1 intragastric twice per day
Experimental: All animal experiments were conducted according to the Institutional Animal Care and Use Committee (IACUC). A total of 5 × 10^6 A549 cells was resuspended in 200 μL PBS and injected subcutaneously into each 4‐week‐old female nude mice. Once the tumor volume had reached 100–200 mm^3, six mice were randomized into each group. […] Then, 2.375 mL of 20% HP‐beta‐cyclodextrin was added to the above mixture to make a final concentration of 6 mg·mL^−1. […] Tumor volumes were determined from caliper measurements of tumor length (L) and width (W) according to the formula (L × W^2)/2. The relative tumor volume (RTV) was calculated using the following formula: RTV = (tumor volume on measured day)/(tumor volume on day 0).

[19] = biological target: T1, EGFR; assay: SILAC phosphoproteomics in A549 cells, EGFR; format: cell-based; conditions: 8 μM, 8 h, treated versus untreated
Experimental: as §2

T1 sequence (P00533 25-1210): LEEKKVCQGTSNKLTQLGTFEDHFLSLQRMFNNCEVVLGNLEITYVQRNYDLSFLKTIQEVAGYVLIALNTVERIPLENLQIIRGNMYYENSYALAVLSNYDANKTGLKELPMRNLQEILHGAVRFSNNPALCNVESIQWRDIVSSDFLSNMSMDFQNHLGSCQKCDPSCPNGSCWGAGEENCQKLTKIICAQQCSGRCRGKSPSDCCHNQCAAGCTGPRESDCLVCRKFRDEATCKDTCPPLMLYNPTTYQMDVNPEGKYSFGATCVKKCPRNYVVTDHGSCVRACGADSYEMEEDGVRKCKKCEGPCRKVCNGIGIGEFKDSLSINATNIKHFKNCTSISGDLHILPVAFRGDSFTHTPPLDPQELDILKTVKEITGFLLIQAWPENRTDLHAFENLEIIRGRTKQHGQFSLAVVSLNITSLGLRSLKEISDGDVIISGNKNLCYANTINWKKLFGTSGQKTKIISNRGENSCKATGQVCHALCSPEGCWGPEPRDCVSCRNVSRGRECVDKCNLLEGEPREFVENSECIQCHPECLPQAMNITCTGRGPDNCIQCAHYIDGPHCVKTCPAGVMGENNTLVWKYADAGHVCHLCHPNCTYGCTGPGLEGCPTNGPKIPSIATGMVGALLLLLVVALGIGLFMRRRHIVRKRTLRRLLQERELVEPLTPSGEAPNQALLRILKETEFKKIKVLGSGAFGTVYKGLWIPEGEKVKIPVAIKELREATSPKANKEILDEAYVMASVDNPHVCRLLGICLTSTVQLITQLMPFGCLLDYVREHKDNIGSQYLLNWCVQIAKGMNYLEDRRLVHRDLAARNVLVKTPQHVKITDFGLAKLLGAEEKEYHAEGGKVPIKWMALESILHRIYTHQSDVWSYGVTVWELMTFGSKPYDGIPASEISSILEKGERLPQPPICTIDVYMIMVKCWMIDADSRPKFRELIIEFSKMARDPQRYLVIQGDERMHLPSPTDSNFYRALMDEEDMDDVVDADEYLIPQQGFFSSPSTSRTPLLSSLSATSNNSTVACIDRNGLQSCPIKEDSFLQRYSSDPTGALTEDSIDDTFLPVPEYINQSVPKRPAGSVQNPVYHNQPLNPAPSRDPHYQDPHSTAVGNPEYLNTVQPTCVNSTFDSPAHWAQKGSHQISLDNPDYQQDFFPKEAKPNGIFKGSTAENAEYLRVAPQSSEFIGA
PI3Ka, sequence (P42336 whole entry): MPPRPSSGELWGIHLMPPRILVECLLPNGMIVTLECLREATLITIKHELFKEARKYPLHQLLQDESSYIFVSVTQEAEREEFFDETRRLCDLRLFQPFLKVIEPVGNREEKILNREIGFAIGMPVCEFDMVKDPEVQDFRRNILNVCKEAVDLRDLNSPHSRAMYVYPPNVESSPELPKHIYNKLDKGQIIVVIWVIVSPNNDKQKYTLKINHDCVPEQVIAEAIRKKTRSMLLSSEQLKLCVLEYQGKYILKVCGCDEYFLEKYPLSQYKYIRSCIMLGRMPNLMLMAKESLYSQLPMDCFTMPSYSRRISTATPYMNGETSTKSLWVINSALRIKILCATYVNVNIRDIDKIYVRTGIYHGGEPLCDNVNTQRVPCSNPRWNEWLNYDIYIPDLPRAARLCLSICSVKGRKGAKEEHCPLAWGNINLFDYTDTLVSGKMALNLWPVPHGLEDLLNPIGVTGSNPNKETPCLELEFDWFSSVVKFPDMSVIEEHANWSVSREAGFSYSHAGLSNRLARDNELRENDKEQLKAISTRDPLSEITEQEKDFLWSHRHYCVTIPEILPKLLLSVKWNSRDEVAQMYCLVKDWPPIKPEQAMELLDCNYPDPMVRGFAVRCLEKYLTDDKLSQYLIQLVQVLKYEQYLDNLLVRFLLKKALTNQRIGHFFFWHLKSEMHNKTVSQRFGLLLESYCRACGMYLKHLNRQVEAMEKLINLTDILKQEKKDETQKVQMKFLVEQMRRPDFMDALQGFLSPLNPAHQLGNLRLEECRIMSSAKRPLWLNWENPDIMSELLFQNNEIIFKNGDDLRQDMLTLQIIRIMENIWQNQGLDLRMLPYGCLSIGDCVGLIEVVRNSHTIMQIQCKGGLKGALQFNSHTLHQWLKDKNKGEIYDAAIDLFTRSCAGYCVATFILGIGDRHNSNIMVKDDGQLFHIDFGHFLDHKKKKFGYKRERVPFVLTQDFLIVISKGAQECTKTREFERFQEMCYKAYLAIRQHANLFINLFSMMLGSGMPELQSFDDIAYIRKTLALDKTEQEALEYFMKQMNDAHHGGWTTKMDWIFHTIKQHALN
PI3Ka, sequence (P27986 whole entry partner): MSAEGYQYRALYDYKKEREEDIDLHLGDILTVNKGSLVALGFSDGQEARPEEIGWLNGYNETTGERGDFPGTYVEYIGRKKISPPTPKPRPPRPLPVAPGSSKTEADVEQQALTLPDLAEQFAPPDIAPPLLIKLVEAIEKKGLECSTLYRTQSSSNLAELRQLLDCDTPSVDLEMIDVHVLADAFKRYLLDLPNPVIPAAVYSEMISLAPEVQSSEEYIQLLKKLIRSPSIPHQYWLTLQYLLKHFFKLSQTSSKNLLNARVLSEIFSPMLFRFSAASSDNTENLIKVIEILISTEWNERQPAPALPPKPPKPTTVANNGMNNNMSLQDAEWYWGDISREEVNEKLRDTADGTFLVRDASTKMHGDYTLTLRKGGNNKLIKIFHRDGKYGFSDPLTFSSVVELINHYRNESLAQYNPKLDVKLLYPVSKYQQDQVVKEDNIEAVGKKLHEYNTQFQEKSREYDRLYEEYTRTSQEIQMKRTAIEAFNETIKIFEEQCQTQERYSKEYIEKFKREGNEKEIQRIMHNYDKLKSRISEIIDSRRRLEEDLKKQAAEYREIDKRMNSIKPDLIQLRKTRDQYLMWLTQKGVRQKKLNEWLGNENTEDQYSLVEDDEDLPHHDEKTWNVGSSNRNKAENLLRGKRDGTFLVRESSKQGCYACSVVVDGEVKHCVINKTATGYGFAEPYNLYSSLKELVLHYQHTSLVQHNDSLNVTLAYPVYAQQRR
p70S6K, sequence (P23443 whole entry): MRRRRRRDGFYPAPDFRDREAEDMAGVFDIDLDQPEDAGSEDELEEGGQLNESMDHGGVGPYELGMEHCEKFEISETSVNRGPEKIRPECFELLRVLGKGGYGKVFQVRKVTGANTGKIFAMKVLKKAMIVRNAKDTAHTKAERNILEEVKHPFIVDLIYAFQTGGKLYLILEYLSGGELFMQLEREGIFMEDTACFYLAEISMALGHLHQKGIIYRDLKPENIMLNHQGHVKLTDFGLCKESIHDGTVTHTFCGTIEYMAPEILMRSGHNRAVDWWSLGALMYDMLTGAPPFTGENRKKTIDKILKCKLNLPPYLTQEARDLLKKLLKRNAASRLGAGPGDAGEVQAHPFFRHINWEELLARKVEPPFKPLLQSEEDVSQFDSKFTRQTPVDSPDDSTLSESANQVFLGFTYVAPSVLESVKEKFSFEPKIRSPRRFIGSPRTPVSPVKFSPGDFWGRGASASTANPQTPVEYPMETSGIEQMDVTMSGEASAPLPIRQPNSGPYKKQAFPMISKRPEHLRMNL
AKT1, sequence (P31749 whole entry): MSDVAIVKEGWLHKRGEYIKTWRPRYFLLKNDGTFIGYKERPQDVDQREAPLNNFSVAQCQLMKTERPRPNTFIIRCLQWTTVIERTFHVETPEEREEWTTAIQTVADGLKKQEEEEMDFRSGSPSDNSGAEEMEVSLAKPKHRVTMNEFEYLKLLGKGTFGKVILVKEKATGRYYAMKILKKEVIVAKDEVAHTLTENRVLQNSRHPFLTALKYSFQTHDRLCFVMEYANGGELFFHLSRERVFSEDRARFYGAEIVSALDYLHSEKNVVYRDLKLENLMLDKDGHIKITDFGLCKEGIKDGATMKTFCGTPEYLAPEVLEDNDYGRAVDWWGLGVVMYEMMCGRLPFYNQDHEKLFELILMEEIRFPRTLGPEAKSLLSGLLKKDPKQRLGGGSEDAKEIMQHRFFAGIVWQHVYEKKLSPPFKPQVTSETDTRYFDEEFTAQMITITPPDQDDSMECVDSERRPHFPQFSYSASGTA

IC50 [2]: > 10 µM | IC50 [3]: > 10 µM
Compound: CC1(C)CCC(CN2CCN(c3ccc(C(=O)NS(=O)(=O)c4ccc(NCC5CCOCC5)c([N+](=O)[O-])c4)c(Oc4cnc5[nH]ccc5c4)c3)CC2)=C(c2ccc(Cl)cc2)C1 [ABT‐199]
Mcl-1 band intensity [1]: 1.30

Cmax [5]: 304 ng/mL | IC50 [10]: 1 to 4 µM | IC50 [11]: > 1 µM | IC50 [12]: > 1 µM | IC50 [14]: 0.061 µM | IC50 [15]: 1 to 4 µM | IC50 [16]: > 1 µM | IC50 [2]: 1 to 4 µM | IC50 [17]: > 1 µM | effect on mice bodyweight [18]: without affecting the mice bodyweight | IC50 [3]: 1 to 4 µM | Decrease fold of phosphorylated EGFR, position 693 [19]: 1.76 fold | Decrease fold of phosphorylated EGFR, position 991 [19]: 2.03 fold
Compound: C=C(Br)C(=O)N1CCCC(n2nc(-c3ccc(Oc4ccccc4)cn3)c3c(N)ncnc32)C1 (centres unmarked) [Ibr‐7]
Decrease fold of phosphorylated RPS6, position 244 [6]: 2.17 fold | Decrease fold of phosphorylated LARP1, position 548 [7]: 1.90 fold | Decrease fold of phosphorylated LARP1, position 766 [7]: 4.70 fold | Decrease fold of phosphorylated LARP1, position 824 [7]: 2.34 fold | Decrease fold of phosphorylated mTOR, position 2481 [8]: 2.23 fold | Decrease fold of phosphorylated EIF2S2, position 67 [9]: 1.99 fold | Decrease fold of phosphorylated EIF2S2, position 111 [9]: 1.58 fold | viability at 4 µM [4]: 40.3% | Decrease fold of phosphorylated RPS6KA1, position 359 [13]: 1.59 fold | Decrease fold of phosphorylated RPS6KA1, position 363 [13]: 1.54 fold | anti-tumor activity by relative tumor volume (RTV) [18]: the same anti‐tumor activity as ibrutinib

IC50 [12]: > 1 µM | IC50 [16]: > 1 µM
Compound: C=CC(=O)N1CCC[C@@H](n2nc(-c3ccc(Oc4ccccc4)cc3)c3c(N)ncnc32)C1 [ibrutinib, Ibrutinib, reference compound]
viability at 4 µM [4]: 88.1%

The next lines start with the compound.

Compound: C=CC(=O)Nc1cc(Nc2nccc(-c3cn(C)c4ccccc34)n2)c(OC)cc1N(C)CCN(C)C [AZD‐9291]
viability at 4 µM [4]: 57%

Compound: CC(C)C[C@@H](C=O)NC(=O)[C@H](CC(C)C)NC(=O)[C@H](CC(C)C)NC(=O)OCc1ccccc1 [MG‐132] (Cbz-Leu-Leu-Leu-aldehyde)
cytotoxicity on A549 cells ([3]; 10 μM, 24 h, CCK-8): no cytotoxicity effect
